We go through 1 compound from patent US10799590B2, “Compositions containing a bitter tastant and at least one sophorolipid, and methods of reducing bitter taste attributed to a bitter tastant in an edible composition” (The United States of America, as Represented by the …, priority 2015, dated 2020).

For this experiment, the system named is chorda tympani nerve of wild-type B6 mice. Kind of experiment: Chorda tympani whole-nerve responses to lingual taste stimuli, wild-type B6 mice. It counts as in vivo. As to conditions: lingual application (FIG. 6B, 7). How it is done: Mouse model for sweet property and bitter-masking assay. Recordings of chorda tympani (CT) whole-nerve responses: All protocols involving animals were approved by the Institutional Animal Care and Use Committees at the Monell Center prior to the experiments. The study was performed with mice from two strains: C57BL/6J inbred strain (B6; Jackson Laboratory, Bar Harbor, Me.) bearing the wild-type Tas1r3 allele was used as the control, and the C57BL/6J-Tas1r3^tm1Rjm “gene-knockout” strain (T1R3-KO) lacking the entire T1R3 coding region and devoid of T1R3 protein ([…]., et al., Science, 301: 850-853 (2003)). Afferent signals from taste cells are relayed to the brain via three major gustatory nerves: the chorda tympani, glossopharyngeal, and greater superficial petrosal. […] Neural responses resulting from chemical stimulations of the tongue were fed into an amplifier (Grass Instruments, West Warwick, R.I.) and monitored on an oscilloscope and an audio monitor. Whole-nerve responses were integrated with a time constant of 1.0 s and recorded using a computer for later analysis using a PowerLab system (PowerLab/sp4; AD Instruments, Colorado Springs, Colo.). […] To analyze nerve responses to each stimulus, the magnitudes of integrated responses at 5, 10, 15, 20, and 25 s after stimulus onset were measured and averaged. […]

On to `OC[C@H]1O[C@@H](O[C@@H]2[C@@H](O)[C@H](O)[C@@H](CO)O[C@H]2O)[C@H](O)[C@@H](O)[C@@H]1O` [Sophorose, 2-O-β-D-glucopyranosyl-β-D glucopyranose], for which the chorda tympani responses result is “present”.
